Reference: paper PMC2813745, “A novel inhibitor of the PI3K/Akt pathway based on the structure of inositol 1,3,4,5,6-pentakisphosphate” (British Journal of Cancer, 2010)

Columns and labels:
PDK1 = target: T1, PDK1 (Homo sapiens, UniProt O15530); assay: SelectScreen kinase profiling: PDK1; format: biochemical; conditions: 1 µM compound; [ATP] 100 µM; single point
T1 sequence (O15530 1-556): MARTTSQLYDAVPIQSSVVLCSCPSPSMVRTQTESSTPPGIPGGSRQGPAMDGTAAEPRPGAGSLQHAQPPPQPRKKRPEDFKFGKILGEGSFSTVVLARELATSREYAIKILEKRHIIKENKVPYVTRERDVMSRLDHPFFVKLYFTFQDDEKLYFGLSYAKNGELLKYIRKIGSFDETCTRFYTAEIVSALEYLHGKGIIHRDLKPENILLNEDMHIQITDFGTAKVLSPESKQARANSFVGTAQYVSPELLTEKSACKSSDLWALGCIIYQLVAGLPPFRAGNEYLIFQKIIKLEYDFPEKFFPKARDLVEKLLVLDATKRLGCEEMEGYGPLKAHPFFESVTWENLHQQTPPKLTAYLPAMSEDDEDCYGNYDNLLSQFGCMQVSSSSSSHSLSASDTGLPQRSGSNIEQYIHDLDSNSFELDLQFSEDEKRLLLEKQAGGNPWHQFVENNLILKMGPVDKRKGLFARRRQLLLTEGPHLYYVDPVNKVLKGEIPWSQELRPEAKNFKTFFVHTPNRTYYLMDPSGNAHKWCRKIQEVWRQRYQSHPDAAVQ
Method: Effect of the indicated compounds on the activity of various kinases was assessed by SelectScreen Kinase Profiling Service (Invitrogen-Life Technologies, Paisley, UK). Assays were performed using 1 μM of the tested compounds and ATP concentration as indicated in the corresponding tables. In the case of […] a screen using 10 μM of the compound was also carried out, as indicated in the corresponding table.

MCF7 = assay: Cell survival by cell counting, MCF7; format: cell-based, human; conditions: MCF7, 72 h, 20 nM 4-OH Tamoxifen, 50 μM 2-O-Bn-InsP5 alone or in combination
Method: Cells seeded in a 24-well plate were treated with the indicated compounds in serum free DMEM or DMEM containing 0.5% FBS (PC3). After 72 h, the number of surviving cells was assessed by manual cell counting or by using the cell counter CDA-500 (Sysmex, Milton Keynes, UK). Alternatively, after 48 h, the number of apoptotic cells was assessed by acridine orange/ethidium bromide assay as described ([Piccolo et al, 2004]; [Maffucci et al, 2005]). SRB test was carried out in SKOV-3 and PC3 seeded in 96-well plate (3800 cells per well or 5800 cells per well, respectively) after 72 h of treatment as described ([Cappella et al, 2001]).
Data are mean±s.e. of n=4 independent experiments carried out in duplicate. […] Data are mean±s.e. of n=5 independent experiments carried out in duplicate. […] Data are mean±s.e. of n=6 independent experiments carried out in duplicate. […] Data are mean±s.e. of n=2 independent experiments carried out in duplicate. In all cases (A–D), cells were treated for 72 h and the number of surviving cells was assessed by cell counting. […] In all cases (E, F), cells were treated for 72 h and the number of surviving cells was assessed by SRB assay and data are mean±s.e. of two experiments carried out in quadruplicate.

Row | Compound | % Inhibition Mean (PDK1) [%] | number of surviving cells (MCF7)
1 | O=P(O)(O)O[C@@H]1[C@H](O)[C@H](O)[C@@H](OP(=O)(O)O)[C@H](OP(=O)(O)O)[C@H]1O [Ins(1,4,5)P3] | 17 | –
2 | 4-hydroxy-tamoxifen [4-OH tamoxifen, reference compound] | – | reduced the number of surviving cells
3 | O=P(O)(O)O[C@H]1[C@H](OP(=O)(O)O)[C@@H](OP(=O)(O)O)[C@H](OP(=O)(O)O)[C@@H](OP(=O)(O)O)[C@H]1OP(=O)(O)O [Ins(1,2,3,4,5,6)P6] | 18 | –

More lines, main results first:

Row | % Inhibition Mean (PDK1) [%] | Compound | number of surviving cells (MCF7)
4 | 56 | O=P(O)(O)O[C@H]1[C@H](O)[C@@H](OP(=O)(O)O)[C@H](OP(=O)(O)O)[C@@H](OP(=O)(O)O)[C@H]1O [Ins(1,3,4,5)P4] | –
5 | 33 | O=P(O)(O)O[C@H]1[C@H](OP(=O)(O)O)[C@@H](OP(=O)(O)O)[C@@H](O)[C@@H](O)[C@@H]1OP(=O)(O)O [Ins(1,4,5,6)P4] | –
6 | 35 | O=P(O)(O)O[C@H]1[C@H](OP(=O)(O)O)[C@@H](OP(=O)(O)O)[C@@H](O)[C@@H](O)[C@@H]1OP(=O)(O)O [Ins(3,4,5,6)P4] | –
